Results as given in US11484539B2, “Compounds and their uses for alleviating menopause-associated symptoms” (Estetra SPRL, priority 2018, dated 2022).

Test system: post-menopausal women
Experiment: Hot Flush Weekly Weighted Score, dose-finding study
Format: in vivo
Procedure: Further, the terms “Hot Flush Weekly Weighted Score”, as used herein, corresponds to a score taking into account frequency and severity which is calculated by using the severity score (as calculated above): [(1× No. of mild VMS)+(2× No. of moderate VMS)+(3× No. of severe VMS)] during a 7 day period.
Such a weighted score was for example used by Notelovitz et al. (“Initial 17β-Estradiol Dose for Treating Vasomotor Symptoms”; Obstetrics and Gynaecology, Vol. 95(5), May 2000, p. 726-731). This score was used to generate the data included in Example 1 further below, under section A. c) “Hot Flush Weekly Weighted Score”.

Question: What does the source list for `C[C@]12CC[C@@H]3c4ccc(O)cc4CC[C@H]3[C@@H]1[C@@H](O)[C@@H](O)[C@@H]2O` [E4, 1,3,5 (10)-estratrien-3,15alpha,16alpha,17beta-tetrol]?
Answer: LS adjusted mean change from baseline in Hot Flush Weekly Weighted Score (2.5 mg E4, week 4): −75.37; LS adjusted mean change from baseline in Hot Flush Weekly Weighted Score (2.5 mg E4, week 12): −89.86; Mean change from baseline in Hot Flush Weekly Weighted Score (2.5 mg E4 QD per os, week 0): 2.4151; Mean change from baseline in Hot Flush Weekly Weighted Score (2.5 mg E4 QD per os, week 1): −40.805; Relative change (% from baseline) in Hot Flush Weekly Weighted Score, mean (2.5 mg E4 QD per os, week 1): −22%; Mean change from baseline in Hot Flush Weekly Weighted Score (2.5 mg E4 QD per os, week 2): −58.6163; Relative change (% from baseline) in Hot Flush Weekly Weighted Score, mean (2.5 mg E4 QD per os, week 2): −32%; Mean change from baseline in Hot Flush Weekly Weighted Score (2.5 mg E4 QD per os, week 3): −74.8798; Relative change (% from baseline) in Hot Flush Weekly Weighted Score, mean (2.5 mg E4 QD per os, week 3): −43%; Mean change from baseline in Hot Flush Weekly Weighted Score (2.5 mg E4 QD per os, week 4): −82.75; Relative change (% from baseline) in Hot Flush Weekly Weighted Score, mean (2.5 mg E4 QD per os, week 4): −47%; Mean change from baseline in Hot Flush Weekly Weighted Score (2.5 mg E4 QD per os, week 5): −84.6062; Relative change (% from baseline) in Hot Flush Weekly Weighted Score, mean (2.5 mg E4 QD per os, week 5): −48%; Mean change from baseline in Hot Flush Weekly Weighted Score (2.5 mg E4 QD per os, week 6): −89.9842; Relative change (% from baseline) in Hot Flush Weekly Weighted Score, mean (2.5 mg E4 QD per os, week 6): −51%; Mean change from baseline in Hot Flush Weekly Weighted Score (2.5 mg E4 QD per os, week 7): −94.2468; Relative change (% from baseline) in Hot Flush Weekly Weighted Score, mean (2.5 mg E4 QD per os, week 7): −53%; Mean change from baseline in Hot Flush Weekly Weighted Score (2.5 mg E4 QD per os, week 8): −97.1084; Relative change (% from baseline) in Hot Flush Weekly Weighted Score, mean (2.5 mg E4 QD per os, week 8): −55%; Mean change from baseline in Hot Flush Weekly Weighted Score (2.5 mg E4 QD per os, week 9): −101.429; Relative change (% from baseline) in Hot Flush Weekly Weighted Score, mean (2.5 mg E4 QD per os, week 9): −57%; Mean change from baseline in Hot Flush Weekly Weighted Score (2.5 mg E4 QD per os, week 10): −100.18; Relative change (% from baseline) in Hot Flush Weekly Weighted Score, mean (2.5 mg E4 QD per os, week 10): −57%; Mean change from baseline in Hot Flush Weekly Weighted Score (2.5 mg E4 QD per os, week 11): −97.6016; Relative change (% from baseline) in Hot Flush Weekly Weighted Score, mean (2.5 mg E4 QD per os, week 11): −56%; Mean change from baseline in Hot Flush Weekly Weighted Score (2.5 mg E4 QD per os, week 12): −98.5424; Relative change (% from baseline) in Hot Flush Weekly Weighted Score, mean (2.5 mg E4 QD per os, week 12): −57%; Difference with placebo, LS adjusted mean, absolute change in Hot Flush Weekly Weighted Score (2.5 mg E4 vs placebo, week 4): 2.897; Difference with placebo, LS adjusted mean, absolute change in Hot Flush Weekly Weighted Score (2.5 mg E4 vs placebo, week 12): 14.83; Differences with placebo, relative change in weekly weighted score, p_value (2.5 mg vs 0 mg, week 4): 1.0000; Differences with placebo, relative change in weekly weighted score, p_value (2.5 mg vs 0 mg, week 12): 0.6744; Relative change (% from baseline) in weekly weighted score, LS adjusted mean (2.5 mg, Week 12): −0.5795; Relative change (% from baseline) in weekly weighted score, LS adjusted mean (2.5 mg, week 4): −0.474; LS adjusted mean change from baseline in Hot Flush Weekly Weighted Score (5 mg E4, week 4): −66.88; LS adjusted mean change from baseline in Hot Flush Weekly Weighted Score (5 mg E4, week 12): −95.92; Mean change from baseline in Hot Flush Weekly Weighted Score (5 mg E4 QD per os, week 0): 1.8297; Mean change from baseline in Hot Flush Weekly Weighted Score (5 mg E4 QD per os, week 1): −33.7092; Relative change (% from baseline) in Hot Flush Weekly Weighted Score, mean (5 mg E4 QD per os, week 1): −22%; Mean change from baseline in Hot Flush Weekly Weighted Score (5 mg E4 QD per os, week 2): −49.1319; Relative change (% from baseline) in Hot Flush Weekly Weighted Score, mean (5 mg E4 QD per os, week 2): −32%; Mean change from baseline in Hot Flush Weekly Weighted Score (5 mg E4 QD per os, week 3): −56.9697; Relative change (% from baseline) in Hot Flush Weekly Weighted Score, mean (5 mg E4 QD per os, week 3): −37%; Mean change from baseline in Hot Flush Weekly Weighted Score (5 mg E4 QD per os, week 4): −64.8344; Relative change (% from baseline) in Hot Flush Weekly Weighted Score, mean (5 mg E4 QD per os, week 4): −43%; Mean change from baseline in Hot Flush Weekly Weighted Score (5 mg E4 QD per os, week 5): −71.6181; Relative change (% from baseline) in Hot Flush Weekly Weighted Score, mean (5 mg E4 QD per os, week 5): −46%; Mean change from baseline in Hot Flush Weekly Weighted Score (5 mg E4 QD per os, week 6): −88.2337; Relative change (% from baseline) in Hot Flush Weekly Weighted Score, mean (5 mg E4 QD per os, week 6): −56%; Mean change from baseline in Hot Flush Weekly Weighted Score (5 mg E4 QD per os, week 7): −88.2989; Relative change (% from baseline) in Hot Flush Weekly Weighted Score, mean (5 mg E4 QD per os, week 7): −56%; Mean change from baseline in Hot Flush Weekly Weighted Score (5 mg E4 QD per os, week 8): −89.2039; Relative change (% from baseline) in Hot Flush Weekly Weighted Score, mean (5 mg E4 QD per os, week 8): −56%; Mean change from baseline in Hot Flush Weekly Weighted Score (5 mg E4 QD per os, week 9): −90.923; Relative change (% from baseline) in Hot Flush Weekly Weighted Score, mean (5 mg E4 QD per os, week 9): −58%; Mean change from baseline in Hot Flush Weekly Weighted Score (5 mg E4 QD per os, week 10): −91.4798; Relative change (% from baseline) in Hot Flush Weekly Weighted Score, mean (5 mg E4 QD per os, week 10): −59%; Mean change from baseline in Hot Flush Weekly Weighted Score (5 mg E4 QD per os, week 11): −95.8365; Relative change (% from baseline) in Hot Flush Weekly Weighted Score, mean (5 mg E4 QD per os, week 11): −61%; Mean change from baseline in Hot Flush Weekly Weighted Score (5 mg E4 QD per os, week 12): −93.5117; Relative change (% from baseline) in Hot Flush Weekly Weighted Score, mean (5 mg E4 QD per os, week 12): −60%; Difference with placebo, LS adjusted mean, absolute change in Hot Flush Weekly Weighted Score (5 mg E4 vs placebo, week 4): 11.39; Difference with placebo, LS adjusted mean, absolute change in Hot Flush Weekly Weighted Score (5 mg E4 vs placebo, week 12): 8.767; Differences with placebo, relative change in weekly weighted score, p_value (5.0 mg vs 0 mg, week 4): 0.8833; Differences with placebo, relative change in weekly weighted score, p_value (5.0 mg vs 0 mg, week 12): 0.8871; Relative change (% from baseline) in weekly weighted score, LS adjusted mean (5 mg, Week 12): −0.5993; Relative change (% from baseline) in weekly weighted score, LS adjusted mean (5 mg, week 4): −0.4262; LS adjusted mean change from baseline in Hot Flush Weekly Weighted Score (10 mg E4, week 4): −85.56; LS adjusted mean change from baseline in Hot Flush Weekly Weighted Score (10 mg E4, week 12): −109.8; Mean change from baseline in Hot Flush Weekly Weighted Score (10 mg E4 QD per os, week 0): 2.3773; Mean change from baseline in Hot Flush Weekly Weighted Score (10 mg E4 QD per os, week 1): −31.4591; Relative change (% from baseline) in Hot Flush Weekly Weighted Score, mean (10 mg E4 QD per os, week 1): −20%; Mean change from baseline in Hot Flush Weekly Weighted Score (10 mg E4 QD per os, week 2): −54.0849; Relative change (% from baseline) in Hot Flush Weekly Weighted Score, mean (10 mg E4 QD per os, week 2): −35%; Mean change from baseline in Hot Flush Weekly Weighted Score (10 mg E4 QD per os, week 3): −73.5189; Relative change (% from baseline) in Hot Flush Weekly Weighted Score, mean (10 mg E4 QD per os, week 3): −47%; Mean change from baseline in Hot Flush Weekly Weighted Score (10 mg E4 QD per os, week 4): −87.2673; Relative change (% from baseline) in Hot Flush Weekly Weighted Score, mean (10 mg E4 QD per os, week 4): −54%; Mean change from baseline in Hot Flush Weekly Weighted Score (10 mg E4 QD per os, week 5): −93.4648; Relative change (% from baseline) in Hot Flush Weekly Weighted Score, mean (10 mg E4 QD per os, week 5): −58%; Mean change from baseline in Hot Flush Weekly Weighted Score (10 mg E4 QD per os, week 6): −101.646; Relative change (% from baseline) in Hot Flush Weekly Weighted Score, mean (10 mg E4 QD per os, week 6): −64%; Mean change from baseline in Hot Flush Weekly Weighted Score (10 mg E4 QD per os, week 7): −103.024; Relative change (% from baseline) in Hot Flush Weekly Weighted Score, mean (10 mg E4 QD per os, week 7): −64%; Mean change from baseline in Hot Flush Weekly Weighted Score (10 mg E4 QD per os, week 8): −104.835; Relative change (% from baseline) in Hot Flush Weekly Weighted Score, mean (10 mg E4 QD per os, week 8): −66%; Mean change from baseline in Hot Flush Weekly Weighted Score (10 mg E4 QD per os, week 9): −107.578
